Measurements as given in patent US20250361239A1, “PROTEIN DEGRADERS AND USES THEREOF” (ZHUHAI YUFAN BIOTECHNOLOGIES CO., LTD., priority 2022, published 2025).

Tests used:
HL60 cells = experiment: HL60 cell killing experiment (CellTiter-Glo cell viability); assay type: cell-based; settings: Homo sapiens, HL-60, 48 h incubation, CTG luminescence
Procedure: HL60 cell lines were purchased from ATCC (Cat #ATCC® CCL-240™), IMDM media were purchased from ATCC (Cat #ATCC® 30-2005™), FBS was purchased from Gibco (Cat #10091148), celltiter-glo luminescent cell viability assay was purchased from promega (Cat #G7572), and 96-well plates were purchased from corning (Cat #3610).
The effect of compounds on the growth of HL60 cells was determined by measuring cell viability. Firstly, cells in the logarithmic growth phase were collected and centrifuged, and the culture supernatant was discarded. The centrifuged cells were resuspended in a fresh complete medium, and the cell density was adjusted to 5×10^4 cells/mL. The resuspended cells were inoculated into two opaque 96-well cell culture plates at 100 μL of cell suspension per well, and the cell culture plates were incubated in a cell incubator at 37° C. for 4 h. After 4 h, dilutions (20 μL) of compounds with different concentrations were added. After one of the cell plates was cooled to room temperature, 60 μL of CTG reagent was added, and the luminescence values were read on the instrument as G0. The other one was incubated in a cell incubator for 48 h. After 48 h, 60 μL of CTG reagent was added, and the luminescence values were read on the instrument as G3.
According to the corresponding proliferation rate and concentration of each gradient concentration well, a gradient curve of cell proliferation was fitted using XLFit software, and the GI50 values of compounds were calculated.

GSPT1 = target: T1, GSPT1 (Homo sapiens, UniProt P15170+Q96SW2); experiment: Degradation of GSPT1 by the compounds (HiBiT signal in GSPT1/HEK293 hibit cells); assay type: cell-based; settings: 6 h incubation, Nano Glo HiBiT Lytic Detection
T1 construct: host or cells: HEK293
T1 sequence (P15170 whole entry): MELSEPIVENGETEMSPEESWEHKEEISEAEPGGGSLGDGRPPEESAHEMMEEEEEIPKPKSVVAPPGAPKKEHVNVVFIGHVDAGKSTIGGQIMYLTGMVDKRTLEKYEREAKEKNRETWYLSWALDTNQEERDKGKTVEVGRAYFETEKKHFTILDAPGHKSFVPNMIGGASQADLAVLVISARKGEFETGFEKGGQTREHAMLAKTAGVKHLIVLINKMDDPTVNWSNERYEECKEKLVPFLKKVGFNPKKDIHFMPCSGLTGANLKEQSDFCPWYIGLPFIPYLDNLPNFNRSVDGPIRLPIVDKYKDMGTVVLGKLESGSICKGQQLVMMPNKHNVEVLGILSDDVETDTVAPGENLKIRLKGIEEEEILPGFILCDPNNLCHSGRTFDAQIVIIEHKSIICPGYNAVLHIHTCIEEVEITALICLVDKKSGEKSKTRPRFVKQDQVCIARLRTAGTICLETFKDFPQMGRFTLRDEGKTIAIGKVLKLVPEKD
T1 sequence (Q96SW2 whole entry): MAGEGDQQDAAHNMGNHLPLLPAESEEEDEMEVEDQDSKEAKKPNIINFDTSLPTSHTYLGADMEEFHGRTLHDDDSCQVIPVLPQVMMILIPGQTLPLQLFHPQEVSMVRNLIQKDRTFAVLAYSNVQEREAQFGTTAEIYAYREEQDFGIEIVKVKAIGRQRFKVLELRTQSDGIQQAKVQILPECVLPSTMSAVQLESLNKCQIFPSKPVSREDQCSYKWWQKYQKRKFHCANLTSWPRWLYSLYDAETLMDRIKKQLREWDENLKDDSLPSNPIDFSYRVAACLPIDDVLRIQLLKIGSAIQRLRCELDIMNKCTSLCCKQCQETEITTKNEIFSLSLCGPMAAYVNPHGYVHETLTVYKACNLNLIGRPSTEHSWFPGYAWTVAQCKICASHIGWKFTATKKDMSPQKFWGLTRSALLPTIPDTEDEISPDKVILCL
T1 sequence (Q16531 whole entry partner): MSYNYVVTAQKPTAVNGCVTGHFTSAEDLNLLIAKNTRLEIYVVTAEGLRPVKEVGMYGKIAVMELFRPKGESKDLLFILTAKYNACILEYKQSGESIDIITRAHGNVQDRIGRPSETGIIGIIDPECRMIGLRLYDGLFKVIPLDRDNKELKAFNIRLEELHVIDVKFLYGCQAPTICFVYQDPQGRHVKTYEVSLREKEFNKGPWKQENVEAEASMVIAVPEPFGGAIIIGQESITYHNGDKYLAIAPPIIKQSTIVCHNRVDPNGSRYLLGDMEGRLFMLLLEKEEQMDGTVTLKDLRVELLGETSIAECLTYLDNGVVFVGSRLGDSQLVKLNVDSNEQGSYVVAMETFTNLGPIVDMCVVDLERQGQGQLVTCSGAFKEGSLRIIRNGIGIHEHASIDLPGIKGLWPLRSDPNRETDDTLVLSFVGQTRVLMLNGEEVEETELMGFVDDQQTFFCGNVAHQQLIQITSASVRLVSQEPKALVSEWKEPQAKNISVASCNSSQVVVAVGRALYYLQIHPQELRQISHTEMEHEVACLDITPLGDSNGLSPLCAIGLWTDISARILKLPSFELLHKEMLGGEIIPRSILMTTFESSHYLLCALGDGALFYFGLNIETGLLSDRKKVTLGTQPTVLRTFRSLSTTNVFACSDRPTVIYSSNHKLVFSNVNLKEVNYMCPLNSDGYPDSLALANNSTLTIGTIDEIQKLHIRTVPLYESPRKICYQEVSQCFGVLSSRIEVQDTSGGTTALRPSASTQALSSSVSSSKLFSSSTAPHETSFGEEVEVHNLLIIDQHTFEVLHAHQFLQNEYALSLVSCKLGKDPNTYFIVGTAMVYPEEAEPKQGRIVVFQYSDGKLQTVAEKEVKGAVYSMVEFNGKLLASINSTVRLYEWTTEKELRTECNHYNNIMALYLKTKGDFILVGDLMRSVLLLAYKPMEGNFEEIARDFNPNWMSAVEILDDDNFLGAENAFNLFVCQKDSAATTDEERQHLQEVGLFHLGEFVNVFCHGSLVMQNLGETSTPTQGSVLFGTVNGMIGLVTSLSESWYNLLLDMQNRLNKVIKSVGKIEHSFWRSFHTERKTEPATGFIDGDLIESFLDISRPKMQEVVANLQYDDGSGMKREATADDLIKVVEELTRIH
Procedure: GSPT1/HEK293 hibit cell lines were constructed by Shanghai BioDuro Co., Ltd., HEK293 cell lines were purchased from ATCC (Cat #ATCC® CRL-1573™), DMEM media were purchased from ATCC (Cat #ATCC® 30-2002™), FBS was purchased from Gibco (Cat #10091148), Nano Glo HiBiT Lytic Detection System was purchased from Promega (Cat #N3040), and 96-well plates were purchased from coming (Cat #3610).
The degradation of GSPT1 by the compounds was determined by measuring the intensity of hibit signals in cells. Firstly, the cells were digested with pancreatin, and the digestion was then terminated with medium. The cells were centrifuged, and the supernatant was discarded. The centrifuged cells were resuspended in a fresh complete medium, and the cell density was adjusted to 2.5×10^4 cells/mL. The resuspended cells were inoculated into an opaque 96-well cell culture plate at 100 μL of cell suspension per well, and the cell culture plate was incubated in a cell incubator at 37° C. overnight. The next day, dilutions (20 μL) of compounds with different concentrations were added, and the plate was incubated in a cell incubator for 6 h. After 6 h, 60 μL of Nano Glo HiBiT Lytic Detection System reagent was added and the luminescence values were read on the instrument.
According to the corresponding degradation rate and concentration of each gradient concentration well, a gradient curve of degradation rate was fitted using XLFit software, and the DC50 values of compounds were calculated.

DC50 (GSPT1) [µM] | SMILES | GI50 (HL60 cells) [µM]
< 0.1 | Cn1c2cnccc2nc1[C@H]1CC[C@H](NC(=O)c2cccc(CNc3cccc4c3C(=O)N(C3CCC(=O)NC3=O)C4=O)c2)CC1 (some centres unmarked) [Example 34] | < 0.1
< 0.1 | Cn1c(C2CCC(NC(=O)c3cc(CNc4cccc5c4C(=O)N(C4CCC(=O)NC4=O)C5=O)ccn3)CC2)nc2ccccc21 (centres unmarked) [Example 35] | < 0.1
< 0.1 | Cn1c2ccncc2nc1[C@H]1CC[C@H](C(=O)Nc2cccc(CNc3cccc4c3C(=O)N(C3CCC(=O)NC3=O)C4=O)c2)CC1 (some centres unmarked) [Example 36] | < 0.1
< 0.1 | Cn1c2cnccc2nc1[C@H]1CC[C@H](C(=O)Nc2cccc(CNc3cccc4c3C(=O)N(C3CCC(=O)NC3=O)C4=O)c2)CC1 (some centres unmarked) [Example 37] | < 0.1
< 0.1 | O=C1CCC(N2C(=O)c3cccc(NCc4ccc5cn([C@H]6CC[C@H](c7nc8cccnc8s7)CC6)nc5c4)c3C2=O)C(=O)N1 (some centres unmarked) [Example 38] | < 0.1
< 0.1 | Cn1c2cccnc2nc1[C@H]1CC[C@H](NC(=O)c2cc(CNc3cccc4c3C(=O)N(C3CCC(=O)NC3=O)C4=O)ccn2)CC1 (some centres unmarked) [Example 42] | < 0.1
< 0.1 | Cn1c2ncccc2nc1[C@H]1CC[C@H](NC(=O)c2cc(CNc3cccc4c3C(=O)N(C3CCC(=O)NC3=O)C4=O)ccn2)CC1 (some centres unmarked) [Example 43] | < 0.1
< 0.1 | O=C1CCC(N2C(=O)c3cccc(NCc4cccc(C(=O)NC5CCC(c6cc7ccccc7s6)CC5)c4)c3C2=O)C(=O)N1 (centres unmarked) [Example 44] | < 0.1
< 0.1 | Cn1c(C2CCC(NC(=O)c3cc(COc4cccc5c4C(=O)N(C4CCC(=O)NC4=O)C5=O)ccn3)CC2)nc2ccncc21 (centres unmarked) [Example 48] | < 0.1
< 0.1 | O=C1CCC(N2C(=O)c3cccc(NCc4cccc(C(=O)NC5CCC(c6nc7ccccc7s6)CC5)c4)c3C2=O)C(=O)N1 (centres unmarked) [Example 49] | < 0.1
< 0.1 | O=C1CCC(N2C(=O)c3cccc(NCc4cccc(C(=O)NC5CCC(c6cc7ccncc7s6)CC5)c4)c3C2=O)C(=O)N1 (centres unmarked) [Example 50] | < 0.1
< 0.1 | O=C1CCC(N2C(=O)c3cccc(NCc4cccc(C(=O)NC5CCC(c6cc7cnccc7s6)CC5)c4)c3C2=O)C(=O)N1 (centres unmarked) [Example 51] | < 0.1
< 0.1 | O=C1CCC(N2C(=O)c3cccc(NCc4cccc(C(=O)NC5CCC(c6csc7ccncc67)CC5)c4)c3C2=O)C(=O)N1 (centres unmarked) [Example 56] | < 0.1
< 0.1 | O=C1CCC(N2C(=O)c3cccc(NCc4cccc(C(=O)NC5CCC(c6nc7cccnc7s6)CC5)c4)c3C2=O)C(=O)N1 (centres unmarked) [Example 57] | < 0.1
< 0.1 | O=C1CCC(N2C(=O)c3cccc(NCc4cccc(NC(=O)[C@H]5CC[C@H](c6nc7cccnc7s6)CC5)c4)c3C2=O)C(=O)N1 (some centres unmarked) [Example 59] | < 0.1
< 0.1 | O=C1CCC(N2C(=O)c3cccc(NCc4cccc(C(=O)NC5CCC(c6csc7cncnc67)CC5)c4)c3C2=O)C(=O)N1 (centres unmarked) [Example 60] | < 0.1
< 0.1 | O=C1CCC(N2C(=O)c3cccc(NCc4cccc(NC(=O)[C@H]5CC[C@H](c6nc7cccnc7s6)CC5)n4)c3C2=O)C(=O)N1 (some centres unmarked) [Example 62] | < 0.1
< 0.1 | O=C1CCC(N2C(=O)c3cccc(NCc4cccc(C(=O)NC5CCC(c6cc7sccc7s6)CC5)c4)c3C2=O)C(=O)N1 (centres unmarked) [Example 66] | < 0.1
< 0.1 | Cn1c(C2CC3(CC(NC(=O)c4cccc(CNc5cccc6c5C(=O)N(C5CCC(=O)NC5=O)C6=O)c4)C3)C2)nc2ccncc21 (centres unmarked) [Example 69] | < 0.1

DC50 (GSPT1) [µM] | SMILES | GI50 (HL60 cells) [µM]
< 0.1 | CCn1c(C2CCC(NC(=O)c3cccc(CNc4cccc5c4C(=O)N(C4CCC(=O)NC4=O)C5=O)c3)CC2)nc2ccncc21 (centres unmarked) [Example 71] | < 0.1
< 0.1 | Cn1c(C2CCC(NC(=O)c3cc(CNc4cccc5c4C(=O)N(C4CCC(=O)NC4=O)C5=O)ccc3F)CC2)nc2ccncc21 (centres unmarked) [Example 77] | < 0.1
< 0.1 | CN(C(=O)c1cc(CNc2cccc3c2C(=O)N(C2CCC(=O)NC2=O)C3=O)ccn1)[C@H]1CC[C@H](c2nc3cccnc3s2)CC1 (some centres unmarked) [Example 79] | < 0.1
< 0.1 | O=C1CCC(N2C(=O)c3cccc(NCc4ccc(F)c(C(=O)N[C@H]5CC[C@H](c6nc7cccnc7s6)CC5)c4)c3C2=O)C(=O)N1 (some centres unmarked) [Example 80] | < 0.1
< 0.1 | O=C1CCC(N2C(=O)c3cccc(NCc4cccc(C(=O)NC5CCC(c6nc7cccnc7n6C6CC6)CC5)c4)c3C2=O)C(=O)N1 (centres unmarked) [Example 82] | < 0.1
< 0.1 | CCCn1c(C2CCC(NC(=O)c3cccc(CNc4cccc5c4C(=O)N(C4CCC(=O)NC4=O)C5=O)c3)CC2)nc2cccnc21 (centres unmarked) [Example 84] | < 0.1
< 0.1 | COc1ccc2c(c1)nc(C1CCC(NC(=O)c3cccc(CNc4cccc5c4C(=O)N(C4CCC(=O)NC4=O)C5=O)c3)CC1)n2C (centres unmarked) [Example 85] | < 0.1
< 0.1 | CNc1ccc2c(c1)nc(C1CCC(NC(=O)c3cccc(CNc4cccc5c4C(=O)N(C4CCC(=O)NC4=O)C5=O)c3)CC1)n2C (centres unmarked) [Example 86] | < 0.1
< 0.1 | COc1ccc(CNc2cccc3c2C(=O)N(C2CCC(=O)NC2=O)C3=O)cc1C(=O)N[C@H]1CC[C@H](c2nc3ncccc3s2)CC1 (some centres unmarked) [Example 95] | < 0.1
< 0.1 | COc1cnc2sc([C@H]3CC[C@H](C(=O)Nc4cccc(CNc5cccc6c5C(=O)N(C5CCC(=O)NC5=O)C6=O)c4)CC3)nc2c1 (some centres unmarked) [Example 98] | < 0.1
< 0.1 | COc1ccc(CNc2cccc3c2C(=O)N(C2CCC(=O)NC2=O)C3=O)cc1C(=O)N[C@H]1CC[C@H](c2nc3ccncc3s2)CC1 (some centres unmarked) [Example 99] | < 0.1
< 0.1 | Cn1c(C2CCC(NC(=O)c3cccc(CNc4cccc5c4C(=O)N(C4CCC(=O)NC4=O)C5=O)c3)CC2)nc2c3cc[nH]c3ncc21 (centres unmarked) [Example 100] | < 0.1
< 0.1 | O=C1CCC(N2C(=O)c3cccc(NCc4cccc(C(=O)NC5CCC(c6nc7ccncc7n6C6COC6)CC5)c4)c3C2=O)C(=O)N1 (centres unmarked) [Example 101] | < 0.1
< 0.1 | O=C1CCC(N2C(=O)c3cccc(NCCCCC(=O)NC4CCC(c5nc6c(cnc7[nH]cc(C8CCOCC8)c76)[nH]5)CC4)c3C2=O)C(=O)N1 (centres unmarked) [Example 109] | < 0.1
< 0.1 | Cn1c(C2CCC(NC(=O)CCCCNc3cccc4c3C(=O)N(C3CCC(=O)NC3=O)C4=O)CC2)nc2c3c(C4CCCCC4)c[nH]c3ncc21 (centres unmarked) [Example 110] | < 0.1
< 0.1 | Cn1cc(C2CCOCC2)c2c3nc(C4CCC(NC(=O)CCCCNc5cccc6c5C(=O)N(C5CCC(=O)NC5=O)C6=O)CC4)[nH]c3cnc21 (centres unmarked) [Example 112] | < 0.1
< 0.1 | O=C1CCC(N2C(=O)c3cccc(NCc4cccc(C(=O)NC5CCC(c6nc7c(cnc8[nH]cc(C9CCOCC9)c87)[nH]6)CC5)c4)c3C2=O)C(=O)N1 (centres unmarked) [Example 115] | < 0.1
< 0.1 | O=C1CCC(N2C(=O)c3cccc(NCc4ccc(C(=O)NC5CCC(c6nc7c(cnc8[nH]cc(C9CCOCC9)c87)[nH]6)CC5)cc4)c3C2=O)C(=O)N1 (centres unmarked) [Example 116] | < 0.1
